Laboratory results published in patent US20160278381A1, “Agricultural And Horticultural Fungicidal Composition And Method Of Use Of the Same” (NIHON NOHYAKU CO., LTD., priority 2015, published 2016).

System: Pythium aphanidermatum
Assay: Test Example 1: spray on lawn grass sods, inoculation with Pythium aphanidermatum, control value from lesion diameter
Assay type: in vivo
Settings: for Control Value (%): alone, lesion diameter seven days after inoculation; for efficacy against Pythium aphanidermatum: treated each alone
Source text: With a hand spray, chemical agents (no spreader added) prepared from commercial formulations at the predetermined concentrations were sprayed with the volume of 0.25 l/m^2. Seven days after the final spraying, with a hole cutter (10 cm in diameter), two sods were cut out, transferred into a greenhouse and inoculated with Pythium aphanidermatum.
For the test plot for the present invention, chemical solutions of tiadinil and chlorothalonil were each prepared, and each of the chemical solutions were blended for use as compositions and combinations.
Seven days after the inoculation, lesion diameters in each treated plots and the untreated plot were measured for calculating the control values for each treated plots using an equation below.
In general, in a case, where two active ingredients given are mixed and treated, if the actual efficacy measured is larger than the Colby's expectation value (E) calculated using the Colby's equation below, wherein value (E) is interpreted to denote an expected control value (%) which is predicted by the combination of the two active ingredients, the function achieved by the combination of the two active ingredients is determined to be synergistic.
(wherein X represents the preventive value (%) of one of the active ingredients and Y represents the preventive value (%) of the other active ingredient.)

Compound	Control Value (%) (dose 1.1 fl oz/1,000 ft^2)	efficacy against Pythium aphanidermatum	Control Value (%) (dose 0.15625 fl oz/1,000 ft^2)	Control Value (%) (dose 0.3125 fl oz/1,000 ft^2)	Control Value (%) (dose 0.625 fl oz/1,000 ft^2)	Control Value (%) (dose 1.25 fl oz/1,000 ft^2)
N#Cc1c(Cl)c(Cl)c(Cl)c(C#N)c1Cl [Chlorothalonil, chlorothalonil]	22	did not show sufficient efficacy	–	–	–	–
Cc1ccc(NC(=O)c2snnc2C)cc1Cl [Tiadinil, tiadinil]	–	did not show sufficient efficacy	11	11	22	22
